From patent US20080293759A1, “Method for Treating Cancer Based on the Modulation of Calcineurin” (Centre National De La Recherche, priority 2005, published 2008)

Legend:
NFAT2 = assay: ICN1 leukemic cells in culture with CsA or ionomycin, NFAT2 western blot; assay type: cell-based, mouse; settings: ICN1 leukemic cells maintained in culture for 60 minutes
Protocol: Phosphorylated and de-phosphorylated isoforms are indicated by coloured arrows.
Leukemia-derived primary cells and leukemia cell lines (TEL-JAK2, ICN1 and ERP15-14) were maintained in RPMI 1640 supplemented with 10% foetal calf serum, 100 U/ml penicillin, 100 μg/ml streptomycin, 2 mM glutamine (all from Life Technologies) and […] 2-βmercaptoethanol (Sigma).
Total cellular extracts prepared from cells obtained directly from diseased animals or control littermates or harvested at the indicated times following culture, were resolved by SDS-PAGE and subjected to immunoblot analysis with the indicated antibody (Ab). The NFAT1(sc-7296), NFAT2 (sc-7294), NFAT4 (sc-8321), STAT5 (C-17; sc-835) antibodies were purchased from Santa Cruz Biotechnology. The phosphotyrosine-STAT5 antibody (05-495) was purchased from Upstate Biotechnology. The pan-NFAT Ab (796) was kindly provided by Dr. Nancy Rice.

NFATc1, NFATc2, NFATc3 = assay: Thymocytes ex vivo with CsA or ionomycin, NFAT western blot; assay type: cell-based, mouse; settings: unstimulated thymocytes ex vivo, 1 μg/ml, 60 minutes

SMILES: C[C@H](CCC(=O)O)C[C@H](C)C[C@H](C)C(=O)/C=C(\O)[C@H](C)C[C@H](C)C/C=C/[C@@H](C)[C@@H](O)[C@@H](C)[C@@H](O)C[C@@H]1CC[C@@](C)([C@H]2CC[C@@](C)([C@@H](C)O)O2)O1 [ionomycin]
- NFAT2 isoform migration (phosphorylation) (NFAT2): indistinguishable from that observed in ICN1 non-treated leukemic cells
- NFATc1, NFATc2, NFATc3 phosphorylation (NFATc1, NFATc2, NFATc3): fully dephosphorylated
